One test relates to 3T3L1. As to the kind of experiment: Fat cell differentiation of 3T3L1 cells, oil red O staining. It is filed as cell-based. How it is done: In some assays, fat cell data were obtained by using the cell line 3T3L1, which is used to study fat cell differentiation. These cells are grown as fat cell precursors. These cells are maintained in Hams F12 with fetal calf serum and 15 mM glutamine. To stimulate them to enter the fat cell differentiation pathway, isomethylbutylxanine, dexamethasone and insulin are added using concentrations of 0.5 mM IBMX 16.7 nM insulin and 0.1 uM dexamethasone. In some cases 100 ng/ml IGF-I was added instead of insulin. Three days after the addition, differentiation into adipocytes is apparent and is detected by oil red O staining.
To determine the effects of the peptide of SEQ ID NO:1, it was added at concentrations of 20 ng/ml, 200 ng/ml and 2 ug/ml. A detectable inhibition of adipocyte differentiation, as determined by a decrease in the number of oil red O positive cells, was detected using 20 ng/ml of peptide. The response was maximal at 200 ng/ml and not increased further by adding 2 mcg/ml.
For oil red O staining, a stock solution of […] isoproponol is prepared. 60 ml of solution is mixed with 40 ml of water and allowed to sit at room temperature for an hour and then filtered. The media is aspirated from the adipocyte cultures and cells are fixed in 1% formaldehyde. Formaldehyde is aspirated and the oil red O solution is added in an amount necessary to cover the cells, which are then left at room temperature for one hour. The stain is then removed and the plates are washed with distilled water and dried. Typically 60-70% of the cells stain positive after 3 days.

The next test deals with PTEN. Kind of test: Western blot analysis of PTEN expression. It is filed as cell-based, mouse. To be noted: for PTEN concentrations: aortic smooth muscle and bone cells from IGFBP-2 gene deleted mice, exogenous addition. Here is the method:
FIG. 5. The heparin-binding domain of IGFBP2 suppresses PTEN expression. a and b, Igfbp2^−/− calvarial osteoblasts (COBs) were isolated, and treated with PBS, IGFBP-2 or pegylated heparin-binding domain peptide (PEG-HBD) in MEMα containing 0.1% BSA overnight. Whole cell lysate was collected and expression of PTEN and α-actin was analyzed by Western blot analysis. Expression levels of PTEN were quantified by normalizing to the expression levels of α-actin. c and d. COBs pre-incubated with PBS, IGFBP-2 or PEG-HBD overnight were treated with IGF-I (100 ng/ml) for 15 minutes. Whole cell lysate was collected and expression of pSer473-Akt and Akt was analyzed by Western blot analysis. Expression levels of pSer473-Akt were quantified by normalizing to the expression levels of Akt. Figures shown represent at least 3 independent experiments. Values are expressed as the mean±SEM (n=3-4). Statistical difference was analyzed by Student's t-test. *; <0.001, **; <0.01, ^†; <0.05.
FIG. 9. […] Igfbp2^+/+ calvarial osteoblasts were treated with PBS, control peptide, or heparin-binding domain peptide (HBD-peptide) overnight, and whole cell lysate was collected. PTEN expression was analyzed using western blot analysis (a), and quantitative analysis was performed (b). Values were expressed as the mean±SEM (n=3). Statistical significance was analyzed by ANOVA followed by Bonferroni post-hoc test. ^a; p<0.01 vs. PBS, ^b; p<0.01 vs. control peptide.
To prepare whole cell lysates, cells were solubilized in RIPA buffer^55. For cytosolic fraction, cells were solubilized with hypotonic buffer containing protease and phosphatase inhibitors (10 mM Tris, 0.2 mM MgCl2, pH 7.4) and kept on ice for 10 min. Cell lysates were mixed with sucrose buffer (final concentration; 25 mM Sucrose, 0.1 mM EDTA) and centrifuged at 20,000×g for 1 hour. Supernatant was used as cytosolic fraction. To prepare the membrane fraction, cells were solubilized with PBS containing protease and phosphatase inhibitors. The lysates were frozen at −80° C. for 1 h and thawed at room temperature. After three cycles, they were centrifuged at 13,000×g for 25 min. The pellet was suspended with membrane protein isolation buffer (20 mM Tris-HCl; 150 mM NaCl; 1 mM EDTA; 1 mM EGTA; and 1% Triton X-100, pH 7.5) containing protease and phosphatase inhibitors. Protein concentration was assessed by BCA protein assay kit (Thermo Scientific) and equal amounts of sample were separated by SDS-PAGE and transferred electrophoretically to nitrocellulose membranes. Membranes were blocked in 5% BSA in Tris-buffered saline. […]
On the technique in general: A western blot detects proteins with antibodies after separation by electrophoresis.

Another test concerns adherent macrophages. As to the kind of experiment: Osteoclast differentiation, tartrate resistant acid phosphatase staining. The format is cell-based, mouse. As to conditions: for osteoclast differentiation: macrophages of IGFBP-2 gene deleted Balb/c mice, mCSF, RANK ligand, TRAP stain day 7. The text has this: The method for osteoclast differentiation is as follows: Balb/c mice in which the IGFBP-2 gene had been deleted (see V. DeMambro et al, Endocrinology, 149(5): 2051-2061 (2007)) were anesthetized and sacrificed using cervical dislocation. The femurs from each mouse were dissected free of soft tissue and the bone marrow aspirated by needle puncture. Cells were removed sterile and resuspended in DMEM with 10% fetal calf serum. The cells were centrifuged at 700×g and the cell pellet resuspended in medium and plated in 24 well plates at a concentration of 5000 cells/cm^2. The plates that are used are low adherence plates that have no additives to facilitate cell adherence. Under these conditions macrophages will adhere while other cells will not. The media is supplemented with mCSF 20 ng/ml. After 3 days the cells are removed from the plate and the adherent macrophages are exposed to fresh media containing 10% FBS and mCSF. This is repeated again after 3 days and then after an additional 3 days cells are trypsinized and replated in fresh plates at 6×10^4 cells/cm. At this time RANK ligand, 50 ng/ml, is added, although in some experiments concentrations as low as 10 ng/ml were utilized. Medium is changed at 3 and 6 days and on day 7 cells are stained for tartrate resistant acid phosphatase, a marker of osteoclast differentiation. IGFBP-2 was added at concentrations between 50 ng/ml and 500 mcg/ml. The peptide was added at 20 or 200 ng/ml.
For tartrate resistant acid phosphatase staining, a 1% solution is prepared and incubated with the cells for 30 min at room temperature. Cultures are then washed and cell number determined by manual counting.

The values that follow come from patent publication US9220746B2, “Compounds and methods for treating bone disorders and controlling weight” (The University of North Carolina at Chapel Hill, priority 2009, dated 2015).

Regarding “KHHLGLEEPKKLR (IGFBP-2 heparin binding domain-containing peptide sequence) [peptide of SEQ ID NO:1]”, the “concentration at which inhibition of adipocyte differentiation (decrease in oil red O positive cells) was detectable” value in the test with 3T3L1 (3T3L1, added at 20 ng/ml, 200 ng/ml and 2 ug/ml) was found to be 20 ng/mL. Besides, the “concentration at which the response (inhibition of adipocyte differentiation) was maximal” value with 3T3L1 (3T3L1, not increased further by 2 mcg/ml) came to 200 ng/mL. In the test with 3T3L1 (typically 60-70% of the cells stain positive after 3 days), the “oil red O positive cells at maximum effect of the peptide” value is reported as less than 20%. Moreover, in the test with PTEN, the PTEN concentrations result is recorded as “could suppress PTEN concentrations”. Moreover, in the test on adherent macrophages, the “serum concentration at which osteoclast differentiation was still detected in the presence of the peptide” value is 0.5% and the osteoclast differentiation entry is on record as “would not differentiate into osteoclasts without addition”.

B1: IGFBP-2: Insulin-like growth factor binding protein-2, 36,000 dalton protein, purified from cellular conditioned medium (protein, UniProt P18065 36-325, looked up)
Insulin-like growth …: AEVLFRCPPCTPERLAACGPPPVAPPAAVAAVAGGARMPCAELVREPGCGCCSVCARLEGEACGVYTPRCGQGLRCYPHPGSELPLQALVMGEGTCEKRRDAEYGASPEQVADNGDDHSEGGLVENHVDSTMNMLGGGGSAGRKPLKSGMKELAVFREKVTEQHRQMGKGGKHHLGLEEPKKLRPPPARTPCQQELDQVLERISTMRLPDERGPLEHLYSLHIPNCDKHGLYNLKQCKMSLNGQRGECWCVNPNTGKLIQGAPTIRGDPECHLFYNEQQEARGVHTQRMQ
Consider B1, for which the “concentrations found to inhibit adipocyte differentiation” value in the test with 3T3L1 (3T3L1, tested in parallel) fell in the range of 50 to 500 ng/mL. The PTEN concentrations entry in the test with PTEN is “could suppress PTEN concentrations”. Also, the PTEN expression entry in the test with PTEN (primary calvarial osteoblasts, overnight treatment) was “markedly suppressed PTEN expression”. In addition, in the test with adherent macrophages, the osteoclast differentiation result was “would not differentiate into osteoclasts without addition”.
